Results: patent US11866518B2, “Bicyclic peptide ligands specific for TSLP” (BicycleTx Limited, priority 2020, dated 2024)
Read-outs that look alike come from different tables or passages of the source. *1 amine or outer side, *2 acyl side, *3 side chain or, on linkers, in order; H or OH if unused. Where a SMILES comes first, the peptide text is derived from it. Bridges are numbered along the chain shown (N, C = ends). TATA = O=C(CC[*:1])N1CN(C(=O)CC[*:2])CN(C(=O)CC[*:3])C1

Legend:
[1] = target: T1, TSLP (Homo sapiens, UniProt Q969D9); test: Human peripheral blood mononuclear cell assay (TSLP-induced CCL17/TARC); assay type: cell-based; design: host or cells: added to human PBMCs from healthy donors; settings: read-out: CCL17 % Inhibition @ 10 μM, […] TSLP
How it was run: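 Healthy-donor PBMCs (3 million cells/mL, RPMI + 10% FCS) received bicycle peptide or vehicle (0.1% DMSO) premixed 30 min at rt with TSLP, then were incubated 24 h at 37 °C, 10% CO2. Supernatant CCL17/TARC quantified by MSD.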

[2] = target: T1, TSLP; test: Human TSLP Surface Plasmon Resonance (SPR) binding assay; design: The resulting construct spCD33-6×HN-TEV-hTSLP(29-159)-Avi; 6xHN tag with TEV site (N, cleaved yes); made in house; host or cells: Expi293F cells; settings: biotinylated human TSLP immobilized on streptavidin chip; 20° C.; steady-state or kinetic 1:1 fit; read-out: hTSLP SPR Kd
[3] = the molecule shown is the open-chain precursor
[4] = crosslinker bond, 29-membered ring, TATA/NH4HCO3, MeCN/H2O

T1 sequence (Q969D9 29-159): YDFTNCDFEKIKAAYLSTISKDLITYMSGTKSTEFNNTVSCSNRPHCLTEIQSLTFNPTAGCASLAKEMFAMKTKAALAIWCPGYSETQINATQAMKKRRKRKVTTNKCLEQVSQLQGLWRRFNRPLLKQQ

For `CC(C)C[C@@H]1NC(=O)[C@H](Cc2c[nH]c3ccccc23)NC(=O)[C@H](Cc2c[nH]c3ccccc23)NC(=O)[C@H](CO)NC(=O)[C@H](CC(=O)O)NC(=O)[C@@H]2CSCCC(=O)N3CN(CN(C3)C(=O)CCSC[C@H](NC(=O)[C@@H](NC(=O)[C@H](Cc3c[nH]cn3)NC(=O)[C@@H](N)CO)C(C)C)C(=O)N[C@@H](CCCNC(=N)N)C(=O)N[C@@H](CC(=O)O)C(=O)N[C@@H](CC(C)C)C(=O)N[C@@H](CC(=O)O)C(=O)N3CCC[C@H]3C(=O)N[C@@H](Cc3c[nH]c4ccccc34)C(=O)N[C@@H]([C@@H](C)O)C(=O)N2)C(=O)CCSC[C@@H](C(=O)N[C@@H](C)C(N)=O)NC1=O` [Example 188, SHV-(SEQ ID NO: 137)-A] (H-SHVCRDLDPWTCDSWWLCA-NH2; linker 4-12-18 via TATA; N-terminus and C-terminus assumed), which inhibition at 10 µM [1] is on record?
The inhibition at 10 µM was -4%.

What about the Kd [2] of the same compound?
The Kd was 72 nM.

For `CC(C)C[C@H](NC(=O)CNC(=O)[C@H](CC(=O)O)NC(=O)[C@H](C)NC(=O)[C@@H]1CSCCC(=O)N2CN3CN(C2)C(=O)CCSC[C@H](NC(=O)[C@H]([C@@H](C)O)NC(=O)[C@H](Cc2c[nH]c4ccccc24)NC(=O)[C@@H]2CCCN2C(=O)[C@H](CC(=O)O)NC(=O)[C@H](CC(C)C)NC(=O)[C@H](CC(=O)O)NC(=O)[C@H](CCCNC(=N)N)NC(=O)[C@@H](NC(=O)[C@H](C)N)CSCCC3=O)C(=O)N[C@@H](CO)C(=O)N[C@@H](CO)C(=O)N[C@@H](Cc2c[nH]c3ccccc23)C(=O)N[C@@H](Cc2c[nH]c3ccccc23)C(=O)N[C@@H](CC(C)C)C(=O)N1)C(=O)N[C@@H](Cc1ccc(O)cc1)C(=O)N[C@@H](CC(=O)O)C(=O)N[C@@H](C)C(N)=O` [Example 193, A-(SEQ ID NO: 122)-ADGLYDA], which inhibition at 10 µM [1] is on record?
Its inhibition at 10 µM is 47%.

And the Kd [2]?
The Kd was 50 nM.

Which inhibition at 10 µM [1] does the source give for `CC(C)C[C@@H]1NC(=O)[C@H](Cc2c[nH]c3ccccc23)NC(=O)[C@@H]2CSCCC(=O)N3CN(CN(C3)C(=O)CCSC[C@@H](C(=O)N[C@@H](C)C(N)=O)NC(=O)[C@H](CO)NC1=O)C(=O)CCSC[C@H](NC(=O)[C@H](C)N)C(=O)N[C@@H](CC(=O)O)C(=O)N[C@@H](Cc1c[nH]c3ccccc13)C(=O)N[C@@H](Cc1c[nH]cn1)C(=O)N[C@@H](Cc1c[nH]c3ccccc13)C(=O)N[C@@H](CCC(=O)O)C(=O)N[C@@H](Cc1ccc(O)cc1)C(=O)N[C@@H](CC(=O)O)C(=O)N2` [Example 199, A-(SEQ ID NO: 144)-A] here?
The inhibition at 10 µM was -3%.

And the Kd [2]?
The Kd was 81 nM.

With `CC(C)C[C@@H]1NC(=O)[C@H](Cc2c[nH]c3ccccc23)NC(=O)[C@@H]2CSCCC(=O)N3CN(CN(C3)C(=O)CCSC[C@H](NC(=O)[C@H](CC(=O)O)NC(=O)[C@H](Cc3c[nH]cn3)NC(=O)[C@@H](N)CC(=O)O)C(=O)N[C@@H]([C@@H](C)O)C(=O)N[C@@H](Cc3c[nH]c4ccccc34)C(=O)N[C@@H](CC(N)=O)C(=O)N[C@@H](Cc3c[nH]c4ccccc34)C(=O)N[C@@H](CCC(=O)O)C(=O)N[C@@H](Cc3ccc(O)cc3)C(=O)N[C@@H](CC(=O)O)C(=O)N2)C(=O)CCSC[C@@H](C(=O)N[C@@H](C)C(N)=O)NC(=O)[C@H](CC(=O)O)NC1=O` [Example 200, DHD-(SEQ ID NO: 145)-A] (H-DHDCTWNWEYDCWLDCA-NH2; linker 4-12-16 via TATA; N-terminus and C-terminus assumed) as the compound, how does the inhibition at 10 µM [1] read?
The inhibition at 10 µM was -42%.

And the Kd [2]?
Its Kd is 68 nM.

For “Ac-Cys-Gln-X2-Leu-Glu-Asp-Cys-Trp-X1-Gly-Phe(4-F)-Cys-NH2 (X1=L-2-amino-azidobutanoic acid, X2=L-2-aminohept-6-ynoic acid; three Cys bridged by TATA)”, which ring closure, yield after HPLC ([3]; triazole bond, 27-membered ring, CuSO4/Na ascorbate, H2O/tBuOH) is on record?
The ring closure, yield after HPLC was 1%.

With “Ac-Cys-MeAla-Trp(1-Me)-Ala(tBu)-Gln-Asp-Cys-Trp(1-Me)-ADMA-Gly-Phe(4-F)-Cys-NH2?” as the compound, how does the ring closure, yield after HPLC [3, 4] read?
The ring closure, yield after HPLC was 19%.

Which ring closure, yield after HPLC ([3]; crosslinker bond, 29-membered ring, TATA/NH4HCO3, MeCN/H2O, 0.93 mM) does the source give for “H-Cys-MeAla-Nal1-Ala(tBu)-Gln-Asp-Cys-Trp(1-Me)-ADMA-Gly-Phe(4-F)-Cys-dAla-NH2?” here?
Its ring closure, yield after HPLC is 17%.

For “N3CH2C(O)NH(CH2CH2O)3CH2CH2(CO)-Cys-MeAla-Trp(1-Me)-Ala(tBu)-Gln-Asp-Cys-Trp(1-Me)-ADMA-Gly-Phe(4-F)-Cys-NH2”, which ring closure, yield after HPLC [3, 4] is on record?
The ring closure, yield after HPLC was 12%.

For “n-octanoyl-Cys-MeAla-Trp(1-Me)-Ala(tBu)-Gln-Asp-Cys-Trp(1-Me)-ADMA-Gly-Phe(4-F)-Cys-NH2”, which ring closure, yield after HPLC [3, 4] is on record?
Its ring closure, yield after HPLC is 14%.
